Results taken from US12421229B2, “Hydropyrido[1,2-α]pyrazine compounds for the treatment of autoimmune disease” (Hoffmann-La Roche Inc., priority 2019, dated 2025).

What follows are molecules tested against T1, human TLR8 (Homo sapiens, UniProt Q9NR97) (assay: HEK293-Blue-hTLR-8 cells assay). Settings: HEK293-Blue-hTLR8 cells, R848 stimulation, 20 hrs, SEAP reporter; read-out: HEK/hTLR8 IC50.
T1 construct: host or cells: HEK293 (HEK-Blue hTLR8)
T1 sequence (Q9NR97 27-1041): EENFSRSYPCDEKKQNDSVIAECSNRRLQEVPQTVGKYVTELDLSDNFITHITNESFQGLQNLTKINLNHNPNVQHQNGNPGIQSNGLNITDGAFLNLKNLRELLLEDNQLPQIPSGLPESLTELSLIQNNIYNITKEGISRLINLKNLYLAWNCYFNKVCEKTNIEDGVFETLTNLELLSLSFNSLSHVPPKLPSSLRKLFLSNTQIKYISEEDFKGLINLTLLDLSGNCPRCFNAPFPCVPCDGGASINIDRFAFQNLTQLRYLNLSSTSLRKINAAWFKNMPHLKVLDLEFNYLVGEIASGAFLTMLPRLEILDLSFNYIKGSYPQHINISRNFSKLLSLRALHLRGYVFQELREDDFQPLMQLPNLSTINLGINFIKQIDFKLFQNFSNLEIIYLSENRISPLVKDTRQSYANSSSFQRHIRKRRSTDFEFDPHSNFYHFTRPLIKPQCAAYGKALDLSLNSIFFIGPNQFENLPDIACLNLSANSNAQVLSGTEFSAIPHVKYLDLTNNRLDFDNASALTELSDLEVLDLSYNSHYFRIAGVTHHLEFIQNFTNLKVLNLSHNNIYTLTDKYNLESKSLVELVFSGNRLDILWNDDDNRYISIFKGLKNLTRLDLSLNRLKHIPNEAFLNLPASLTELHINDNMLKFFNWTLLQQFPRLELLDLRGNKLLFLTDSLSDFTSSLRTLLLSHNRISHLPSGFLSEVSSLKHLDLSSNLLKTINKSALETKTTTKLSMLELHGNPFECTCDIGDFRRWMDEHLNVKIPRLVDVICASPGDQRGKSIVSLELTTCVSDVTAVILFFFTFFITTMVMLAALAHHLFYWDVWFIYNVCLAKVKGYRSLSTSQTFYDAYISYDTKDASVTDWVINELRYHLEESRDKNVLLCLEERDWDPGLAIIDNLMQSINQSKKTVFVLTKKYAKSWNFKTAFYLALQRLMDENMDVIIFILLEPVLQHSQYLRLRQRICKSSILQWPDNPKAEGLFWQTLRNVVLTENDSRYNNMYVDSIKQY
Assay type: cell-based
Text: A stable HEK293-Blue-hTLR-8 cell line was purchased from InvivoGen (Cat. #: hkb-htlr8, San Diego, California, USA). These cells were originally designed for studying the stimulation of human TLR8 by monitoring the activation of NF-κB. A SEAP (secreted embryonic alkaline phosphatase) reporter gene was placed under the control of the IFN-β minimal promoter fused to five NF-κB and AP-1-binding sites. The SEAP was induced by activating NF-κB and AP-1 via stimulating HEK-Blue hTLR8 cells with TLR8 ligands. Therefore the reporter expression was declined by TLR8 antagonist under the stimulation of a ligand, such as R848, for incubation of 20 hrs. The cell culture supernatant SEAP reporter activity was determined using QUANTI-Blue™ kit (Cat. #: rep-qb1, Invivogen, San Diego, Ca, USA) at a wavelength of 640 nm, a detection medium that turns purple or blue in the presence of alkaline phosphatase.
HEK293-Blue-hTLR8 cells were incubated at a density of 250,000˜450,000 cells/mL in a volume of 170 μL in a 96-well plate in Dulbecco's Modified Eagle's medium (DMEM) containing 4.5 g/L glucose, 50 U/mL penicillin, […], […], 2 mM L-glutamine, 10% (v/v) heat-inactivated fetal bovine serum with addition of 20 μL test compound in a serial dilution in the presence of final DMSO at 1% and 10 μL of 60 uM R848 in above DMEM, perform incubation under 37° C. in a CO2 incubator for 20 hrs. Then 20 μL of the supernatant from each well was incubated with 180 μL Quanti-blue substrate solution at 37° C. for 2 hrs and the absorbance was read at 620˜655 nm using a spectrophotometer. The signaling pathway that TLR8 activation leads to downstream NF-κB activation has been widely accepted, and therefore similar reporter assay was modified for evaluating TLR8 antagonist.

Row | IC50 [nM] | SMILES
1 | 46 | CO[C@@H]1CN(c2ccc([C@@H]3CCN4[C@@H](C3)CN(c3ccc(C#N)c5ncccc35)C[C@H]4C)cn2)C[C@@H]1N [Example 13, 5-[(4R,8R,9aS)-8-[6-[(3S,4R)-3-amino-4-methoxy-pyrrolidin-1-yl]-3-pyridyl]-4-methyl-1,3,4,6,7,8,9,9a-octahydropyrido[1,2-a]pyrazin-2-yl]quinoline-8-carbonitrile]
2 | 48 | CO[C@@H]1CN(c2ccc([C@@H]3CCN4[C@@H](C3)CN(c3ccc(C#N)c5ncccc35)C[C@H]4C)cn2)C[C@H]1N [Example 14, 5-[(4R,8R,9aS)-8-[6-[(3R,4R)-3-amino-4-methoxy-pyrrolidin-1-yl]-3-pyridyl]-4-methyl-1,3,4,6,7,8,9,9a-octahydropyrido[1,2-a]pyrazin-2-yl]quinoline-8-carbonitrile]
3 | 80 | C[C@@H]1CN(c2ccc(C#N)c3ncccc23)C[C@H]2C[C@H](c3ccc(N4CCNCC4)nc3)CCN21 [Example 15, 5-[(4R,8R,9aR)-4-methyl-8-(6-piperazin-1-yl-3-pyridyl)-1,3,4,6,7,8,9,9a-octahydropyrido[1,2-a]pyrazin-2-yl]quinoline-8-carbonitrile]
4 | 8 | C[C@@H]1CN(c2ccc(C#N)c3ncccc23)C[C@@H]2C[C@@H](Oc3ccc(N4CCNCC4)nc3)CCN21 [Example 16, 5-[(4R,8S,9aS)-4-methyl-8-[(6-piperazin-1-yl-3-pyridyl)oxy]-1,3,4,6,7,8,9,9a-octahydropyrido[1,2-a]pyrazin-2-yl]quinoline-8-carbonitrile]
5 | 54 | C[C@@H]1CN(c2ccc(C#N)c3ncccc23)C[C@@H]2C[C@@H](NCc3ccc(N4CCNCC4)cc3)CCN21 [Example 17, 5-[(4R,8S,9aS)-4-methyl-8-[(4-piperazin-1-ylphenyl)methylamino]-1,3,4,6,7,8,9,9a-octahydropyrido[1,2-a]pyrazin-2-yl]quinoline-8-carbonitrile]
6 | 6 | C[C@@H]1CN(c2ccc(C#N)c3ncccc23)C[C@@H]2C[C@@H](Oc3cnc(N4CCNCC4)nc3)CCN21 [Example 18, 5-[(4R,8S,9aS)-4-methyl-8-(2-piperazin-1-ylpyrimidin-5-yl)oxy-1,3,4,6,7,8,9,9a-octahydropyrido[1,2-a]pyrazin-2-yl]quinoline-8-carbonitrile]
7 | 63 | C[C@@H]1CN(c2ccc(C#N)c3ncccc23)C[C@@H]2C[C@H](c3ccc(N4C[C@@H](N)[C@@H](F)C4)nc3)CCN21 [Example 19, 5-[(4R,8R,9aS)-8-[6-[(3R,4S)-3-amino-4-fluoro-pyrrolidin-1-yl]-3-pyridyl]-4-methyl-1,3,4,6,7,8,9,9a-octahydropyrido[1,2-a]pyrazin-2-yl]quinoline-8-carbonitrile]
8 | 50 | C[C@@H]1CN(c2ccc(C#N)c3ncccc23)C[C@@H]2C[C@H](Nc3ccc([C@H]4CNCCO4)cc3)CCN21 [Example 20, 5-[(4R,8R,9aS)-4-methyl-8-[4-[(2S)-morpholin-2-yl]anilino]-1,3,4,6,7,8,9,9a-octahydropyrido[1,2-a]pyrazin-2-yl]quinoline-8-carbonitrile]
9 | 54 | C[C@@H]1CN(c2ccc(C#N)c3ncccc23)C[C@@H]2C[C@H](Nc3ccc(C[C@@H]4CNCCO4)cc3)CCN21 [Example 21, 5-[(4R,8R,9aS)-4-methyl-8-[4-[[(2R)-morpholin-2-yl]methyl]anilino]-1,3,4,6,7,8,9,9a-octahydropyrido[1,2-a]pyrazin-2-yl]quinoline-8-carbonitrile]
10 | 49 | [2H]c1ccc2c(N3C[C@@H]4C[C@H](Nc5ccc(C[C@@H]6CNCCO6)cc5)CCN4[C@H](C)C3)ccc(C#N)c2n1 [Example 22, 5-[(4R,8R,9aS)-4-methyl-8-[4-[[(2R)-morpholin-2-yl]methyl]anilino]-1,3,4,6,7,8,9,9a-octahydropyrido[1,2-a]pyrazin-2-yl]-2-deuterio-quinoline-8-carbonitrile]
11 | 79 | C[C@@H]1CN(c2ccc(C#N)c3ncccc23)C[C@@H]2C[C@H](c3ccc(N4CCOC[C@@H](N)C4)nc3)CCN21 [Example 23, 5-[(4R,8R,9aS)-8[6-[(6S)-6-amino-1,4-oxazepan-4-yl]-3-pyridyl]-4-methyl-1,3,4,6,7,8,9,9a-octahydropyrido[1,2-a]pyrazin-2-yl]quinoline-8-carbonitrile]
12 | 14 | C[C@@H]1CN(c2ccc(C#N)c3ncccc23)C[C@@H]2C[C@@H](c3ccc(C4CNCCO4)cc3)CCN21 (stereo partly drawn) [Example 24, 5-[(4R,8S,9aS)-4-methyl-8-(4-morpholin-2-ylphenyl)-1,3,4,6,7,8,9,9a-octahydropyrido[1,2-a]pyrazin-2-yl]quinoline-8-carbonitrile]
13 | 27 | C[C@@H]1CN(c2ccc(C#N)c3ncccc23)C[C@@H]2C[C@@H](c3ccc(CC4CNCCO4)cc3)CCN21 (stereo partly drawn) [Example 26, 5-[(4R,8S,9aS)-4-methyl-8-[4-(morpholin-2-ylmethyl)phenyl]-1,3,4,6,7,8,9,9a-octahydropyrido[1,2-a]pyrazin-2-yl]quinoline-8-carbonitrile]
14 | 18 | C[C@@H]1CN(c2ccc(C#N)c3ncccc23)C[C@@H]2C[C@H](c3ccc([C@@H]4CNCCO4)cc3)CCN21 [Example 27, 5-[(4R,8R,9aS)-4-methyl-8-[4-[(2R)-morpholin-2-yl]phenyl]-1,3,4,6,7,8,9,9a-octahydropyrido[1,2-a]pyrazin-2-yl]quinoline-8-carbonitrile]
15 | 7 | CO[C@H]1CN(c2ccc(O[C@H]3CCN4[C@@H](C3)CN(c3ccc(C#N)c5ncccc35)C[C@H]4C)cn2)C[C@H]1N [Example 28, 5-[(4R,8S,9aS)-8-[[6-[(3R,4S)-3-amino-4-methoxy-pyrrolidin-1-yl]-3-pyridyl]oxy]-4-methyl-1,3,4,6,7,8,9,9a-octahydropyrido[1,2-a]pyrazin-2-yl]quinoline-8-carbonitrile]
16 | 5 | C[C@@H]1CN(c2ccc(C#N)c3ncccc23)C[C@@H]2C[C@@H](Oc3cncc(N4CCNCC4)c3)CCN21 [Example 29, 5-[(4R,8S,9aS)-4-methyl-8-[(5-piperazin-1-yl-3-pyridyl)oxy]-1,3,4,6,7,8,9,9a-octahydropyrido[1,2-a]pyrazin-2-yl]quinoline-8-carbonitrile]
17 | 69 | CO[C@@H]1CN(c2ccc(C3CN([C@@H]4CCN5[C@@H](C4)CN(c4ccc(C#N)c6ncccc46)C[C@H]5C)C3)cc2)C[C@H]1N [Example 30, 5-[(4R,8R,9aS)-8-[3-[4-[(3R,4R)-3-amino-4-methoxy-pyrrolidin-1-yl]phenyl]azetidin-1-yl]-4-methyl-1,3,4,6,7,8,9,9a-octahydropyrido[1,2-a]pyrazin-2-yl]quinoline-8-carbonitrile]
18 | 29 | CO[C@H]1CN(c2ccc(C3CN([C@@H]4CCN5[C@@H](C4)CN(c4ccc(C#N)c6ncccc46)C[C@H]5C)C3)cc2)C[C@H]1N [Example 32, 5-[(4R,8R,9aS)-8-[3-[4-[(3R,4S)-3-amino-4-methoxy-pyrrolidin-1-yl]phenyl]azetidin-1-yl]-4-methyl-1,3,4,6,7,8,9,9a-octahydropyrido[1,2-a]pyrazin-2-yl]quinoline-8-carbonitrile]
